From the supplement of paper PMC10307832 come the findings set out here.

Assay in all cases: relative viability (nuclei count vs DMSO), 5 days (fraction); higher = more cells survive
Compound in the test “Avagacestat + Vorinostat”: NC(=O)[C@@H](CCC(F)(F)F)N(Cc1ccc(-c2ncon2)cc1F)S(=O)(=O)c1ccc(Cl)cc1 [Avagacestat] + O=C(CCCCCCC(=O)Nc1ccccc1)NO [Vorinostat] (partner 1 µM)
In short, it runs like this: (§1)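 The day after seeding in 1536-well plates, lung cancer cell lines were treated by pin tool with a single drug, or with a fixed anchor-drug dose together with five library-drug doses (not always all listed) in √10 steps. After 5 days, a combined fix-and-stain solution (final 0.05% Triton X-100, 1% formaldehyde, 1 ug/ml Hoechst) was added. Nuclei counted on 4× images gave relative viability as treated counts over vehicle counts, reported as the median of duplicate plates.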

Compound in the test “Avagacestat + Dasatinib”: NC(=O)[C@@H](CCC(F)(F)F)N(Cc1ccc(-c2ncon2)cc1F)S(=O)(=O)c1ccc(Cl)cc1 [Avagacestat] + Cc1nc(Nc2ncc(C(=O)Nc3c(C)cccc3Cl)s2)cc(N2CCN(CCO)CC2)n1 [Dasatinib] (partner 0.075 µM)
A digest of the protocol:
as §1

Compound in the test “Avagacestat + Navitoclax”: NC(=O)[C@@H](CCC(F)(F)F)N(Cc1ccc(-c2ncon2)cc1F)S(=O)(=O)c1ccc(Cl)cc1 [Avagacestat] + CC1(C)CCC(c2ccc(Cl)cc2)=C(CN2CCN(c3ccc(C(=O)NS(=O)(=O)c4ccc(N[C@H](CCN5CCOCC5)CSc5ccccc5)c(S(=O)(=O)C(F)(F)F)c4)cc3)CC2)C1 [Navitoclax] (partner 0.5 µM)
A digest of the protocol: as §1

Compound in the test “Avagacestat + Crizotinib”: NC(=O)[C@@H](CCC(F)(F)F)N(Cc1ccc(-c2ncon2)cc1F)S(=O)(=O)c1ccc(Cl)cc1 [Avagacestat] + C[C@@H](Oc1cc(-c2cnn(C3CCNCC3)c2)cnc1N)c1c(Cl)ccc(F)c1Cl [Crizotinib] (partner 1 µM)
A digest of the protocol: as §1

Turning to COR-L 105, the relative viability in the test with Avagacestat + Vorinostat (first compound 0.08 µM) was 1.08; with Avagacestat + Vorinostat (first compound 0.253 µM), 0.891; with Avagacestat + Vorinostat (first compound 0.8 µM), 0.87; with Avagacestat + Vorinostat (first compound 2.53 µM), 0.792; in the test with Avagacestat + Vorinostat (first compound 8 µM), 0.884; in the test with Avagacestat + Dasatinib (first compound 0.08 µM), 0.281. In addition, the relative viability stood at 0.307 with Avagacestat + Dasatinib (first compound 0.253 µM); 0.345 with Avagacestat + Dasatinib (first compound 0.8 µM); 0.247 in the test with Avagacestat + Dasatinib (first compound 2.53 µM); 0.279 in the test with Avagacestat + Dasatinib (first compound 8 µM); 0.851 in the test with Avagacestat + Navitoclax (first compound 0.08 µM); 0.604 with Avagacestat + Navitoclax (first compound 0.253 µM). Also, the relative viability is 0.779 with Avagacestat + Navitoclax (first compound 0.8 µM); 0.595 with Avagacestat + Navitoclax (first compound 2.53 µM); 0.648 with Avagacestat + Navitoclax (first compound 8 µM); 0.856 in the test with Avagacestat + Crizotinib (first compound 0.08 µM); 0.815 in the test with Avagacestat + Crizotinib (first compound 0.253 µM); 0.919 with Avagacestat + Crizotinib (first compound 0.8 µM). The relative viability is 0.547 with Avagacestat + Crizotinib (first compound 2.53 µM) and 0.72 with Avagacestat + Crizotinib (first compound 8 µM).
Regarding NCI-H1755, the relative viability with Avagacestat + Vorinostat (first compound 0.08 µM) was found to be 0.884; with Avagacestat + Vorinostat (first compound 0.253 µM), 0.782; in the test with Avagacestat + Vorinostat (first compound 0.8 µM) it was 0.891; in the test with Avagacestat + Vorinostat (first compound 2.53 µM), 0.666; with Avagacestat + Vorinostat (first compound 8 µM), 0.791; in the test with Avagacestat + Dasatinib (first compound 0.08 µM), 0.445. Also, the relative viability in the test with Avagacestat + Dasatinib (first compound 0.253 µM) was 0.357; with Avagacestat + Dasatinib (first compound 0.8 µM), 0.234; with Avagacestat + Dasatinib (first compound 2.53 µM), 0.389; in the test with Avagacestat + Dasatinib (first compound 8 µM) it was 0.334; with Avagacestat + Navitoclax (first compound 0.08 µM) it was 1.08; with Avagacestat + Navitoclax (first compound 0.253 µM), 1.21. Besides, the relative viability in the test with Avagacestat + Navitoclax (first compound 0.8 µM) was 1.09; with Avagacestat + Navitoclax (first compound 2.53 µM), 0.959; in the test with Avagacestat + Navitoclax (first compound 8 µM) it was 0.943; with Avagacestat + Crizotinib (first compound 0.08 µM) it was 1.04; in the test with Avagacestat + Crizotinib (first compound 0.253 µM), 1.01; with Avagacestat + Crizotinib (first compound 0.8 µM), 0.928. In addition, the relative viability with Avagacestat + Crizotinib (first compound 2.53 µM) amounted to 0.865; in the test with Avagacestat + Crizotinib (first compound 8 µM), 0.832.
In the case of NCI-H322M, the relative viability with Avagacestat + Vorinostat (first compound 0.08 µM) was determined as 0.811; with Avagacestat + Vorinostat (first compound 0.253 µM), 0.779; with Avagacestat + Vorinostat (first compound 0.8 µM), 0.855; in the test with Avagacestat + Vorinostat (first compound 2.53 µM), 0.821; in the test with Avagacestat + Vorinostat (first compound 8 µM), 0.777; with Avagacestat + Dasatinib (first compound 0.08 µM), 0.281. For the same cell line, the relative viability turned out to be 0.242 in the test with Avagacestat + Dasatinib (first compound 0.253 µM); 0.247 with Avagacestat + Dasatinib (first compound 0.8 µM); 0.251 in the test with Avagacestat + Dasatinib (first compound 2.53 µM); 0.257 with Avagacestat + Dasatinib (first compound 8 µM); 1.24 with Avagacestat + Navitoclax (first compound 0.08 µM); 1.16 with Avagacestat + Navitoclax (first compound 0.253 µM). Further, the relative viability with Avagacestat + Navitoclax (first compound 0.8 µM) was 1.22; with Avagacestat + Navitoclax (first compound 2.53 µM) it was 1.14; in the test with Avagacestat + Navitoclax (first compound 8 µM) it was 1.07; with Avagacestat + Crizotinib (first compound 0.08 µM), 0.874; with Avagacestat + Crizotinib (first compound 0.253 µM), 1.03; with Avagacestat + Crizotinib (first compound 0.8 µM), 0.952. Besides, the relative viability with Avagacestat + Crizotinib (first compound 2.53 µM) was 0.934; in the test with Avagacestat + Crizotinib (first compound 8 µM), 0.787.
Regarding CAL-12T, the relative viability in the test with Avagacestat + Vorinostat (first compound 0.08 µM) is 0.918; with Avagacestat + Vorinostat (first compound 0.253 µM) it was 1.1; with Avagacestat + Vorinostat (first compound 0.8 µM) it was 0.796; with Avagacestat + Vorinostat (first compound 2.53 µM), 0.729; with Avagacestat + Vorinostat (first compound 8 µM), 0.798; with Avagacestat + Dasatinib (first compound 0.08 µM), 0.376. Also, the relative viability was determined as 0.414 with Avagacestat + Dasatinib (first compound 0.253 µM); 0.418 with Avagacestat + Dasatinib (first compound 0.8 µM); 0.386 in the test with Avagacestat + Dasatinib (first compound 2.53 µM); 0.253 with Avagacestat + Dasatinib (first compound 8 µM); 1.52 with Avagacestat + Navitoclax (first compound 0.08 µM); 1.44 in the test with Avagacestat + Navitoclax (first compound 0.253 µM). The relative viability in the test with Avagacestat + Navitoclax (first compound 0.8 µM) was found to be 1.3; in the test with Avagacestat + Navitoclax (first compound 2.53 µM), 1.32; in the test with Avagacestat + Navitoclax (first compound 8 µM), 1.22; with Avagacestat + Crizotinib (first compound 0.08 µM), 0.607; with Avagacestat + Crizotinib (first compound 0.253 µM), 0.52; with Avagacestat + Crizotinib (first compound 0.8 µM), 0.717. In addition, the values for the relative viability in the test with Avagacestat + Crizotinib (first compound 2.53 µM) and with Avagacestat + Crizotinib (first compound 8 µM) were 0.627 and 0.679, respectively.
As for HCC-827, the relative viability is 0.75 with Avagacestat + Vorinostat (first compound 0.08 µM); 0.849 in the test with Avagacestat + Vorinostat (first compound 0.253 µM); 0.855 in the test with Avagacestat + Vorinostat (first compound 0.8 µM); 0.946 in the test with Avagacestat + Vorinostat (first compound 2.53 µM); 0.832 in the test with Avagacestat + Vorinostat (first compound 8 µM); 0.313 in the test with Avagacestat + Dasatinib (first compound 0.08 µM). Further, the relative viability with Avagacestat + Dasatinib (first compound 0.253 µM) stood at 0.277; with Avagacestat + Dasatinib (first compound 0.8 µM) it was 0.226; in the test with Avagacestat + Dasatinib (first compound 2.53 µM) it was 0.184; with Avagacestat + Dasatinib (first compound 8 µM), 0.244; in the test with Avagacestat + Navitoclax (first compound 0.08 µM), 1.12; with Avagacestat + Navitoclax (first compound 0.253 µM) it was 1.02. Moreover, the relative viability in the test with Avagacestat + Navitoclax (first compound 0.8 µM) is 1.11; in the test with Avagacestat + Navitoclax (first compound 2.53 µM), 1.07; in the test with Avagacestat + Navitoclax (first compound 8 µM), 1.02; with Avagacestat + Crizotinib (first compound 0.08 µM) it was 0.868; with Avagacestat + Crizotinib (first compound 0.253 µM), 0.85; with Avagacestat + Crizotinib (first compound 0.8 µM), 0.992. In addition, the results for the relative viability with Avagacestat + Crizotinib (first compound 2.53 µM) and in the test with Avagacestat + Crizotinib (first compound 8 µM) were 1.03 and 0.999, respectively.
As to NCI-H2087, the relative viability in the test with Avagacestat + Vorinostat (first compound 0.08 µM) came to 1.14; with Avagacestat + Vorinostat (first compound 0.253 µM), 0.914; in the test with Avagacestat + Vorinostat (first compound 0.8 µM), 1.07; with Avagacestat + Vorinostat (first compound 2.53 µM) it was 0.771; with Avagacestat + Vorinostat (first compound 8 µM) it was 0.68; with Avagacestat + Dasatinib (first compound 0.08 µM) it was 0.893. Moreover, the relative viability with Avagacestat + Dasatinib (first compound 0.253 µM) was determined as 1.18; in the test with Avagacestat + Dasatinib (first compound 0.8 µM), 0.994; in the test with Avagacestat + Dasatinib (first compound 2.53 µM) it was 0.916; with Avagacestat + Dasatinib (first compound 8 µM) it was 0.686; in the test with Avagacestat + Navitoclax (first compound 0.08 µM), 1.34; with Avagacestat + Navitoclax (first compound 0.253 µM), 1.19. The relative viability with Avagacestat + Navitoclax (first compound 0.8 µM) was determined as 1.02; with Avagacestat + Navitoclax (first compound 2.53 µM), 1.16; with Avagacestat + Navitoclax (first compound 8 µM) it was 0.931; in the test with Avagacestat + Crizotinib (first compound 0.08 µM), 1.18; with Avagacestat + Crizotinib (first compound 0.253 µM), 1.01; with Avagacestat + Crizotinib (first compound 0.8 µM), 0.906. Moreover, the relative viability is 1.07 with Avagacestat + Crizotinib (first compound 2.53 µM) and 0.843 with Avagacestat + Crizotinib (first compound 8 µM).
